{
  "source": "patent US5030629A",
  "about": "“Compositions and method comprising heterocyclic compounds containing two heteroatoms as membrane penetration enhancers” (priority 1989, dated 1991)",
  "key": {"[1]": {"type": "in vitro ADME, human", "protocol": "Sci. 75, 1094 (1986). […] All formulations were studied in triplicate.\nExample 39 was repeated with 1% Diclofenac gel, with and without compound of Example 21, was evaluated. The aliquots were analyzed by U.V. Spectrophotometry and average cumulative amount of drug permeating over 24 hours was calculated."}, "[2]": {"details": "patch, 5% ES, control without enhancer; receptor ethanol/saline (3:7)", "description": "The compounds of the present invention were tested in vitro as penetration enhancers according to the procedure outlined below. The penetration enhancers were formulated with pharmacologically active agents in creams and patches.\nHuman stratum corneum was isolated from full thickness human skin as described by Bronaugh et. al., J. Pharm. […] The skin was placed between the donor and the receptor compartments of diffusion cells in such a way that the dermal side of the skin faced the receptor compartment which was filled with normal saline (pH 7.2-7.4) or appropriate releasing media. The stratum corneum was equilibrated at 37° C. overnight prior to the application of a topical formulation or a transdermal patch. All formulations were studied in triplicate.\n(§4) The entire contents of the receptor compartment were removed at specific time intervals for duration of the study period and replenished with fresh saline.\nProcedure of Example 39 was repeated with the following 17B-Estradiol (ES) patch formulations. Normal saline in the receptor compartment was replaced by ethanol/saline (3:7)."}, "[3]": {"assay": "Penetration of hydrocortisone through hairless mouse skin in diffusion cells", "type": "in vitro ADME, hairless mice", "details": "for % Penetration (hydrocortisone): 1% hydrocortisone, 2% 1,2-propanediol, 2% enhancer, average for two cells; for penetration enhancing properties as compared to the control (hydrocortisone): in words", "protocol": "The compounds of Examples 8 and 13 were tested as penetration enhancing agents according to the procedure below:\n(§1) The skin was incubated at 37° C. and the ambient humidity.\n(§2) 100 microliters of the solution containing 1 mg of test drug was applied to the epidermal surface within the donor compartment. The entire contents from the 4.2 ml receptor compartment bathing the corium were removed for analysis at 5 or 6, 12 and 24 hours intervals. In each case, the receptor compartment was refilled with 4.2 ml of fresh normal saline.\n(§3) The aliquots removed after 5 or 6, 12 and 24 hours were analyzed by HPLC using a C-18 reverse phase column."}, "[4]": {"assay": "Penetration of 5-fluorouracil through hairless mouse skin in diffusion cells", "type": "in vitro ADME, hairless mice", "details": "for % Penetration (5-Fluorouracil): 1% 5-Fluorouracil, 2% enhancer", "protocol": "as §1, §2, §3\nThe compounds of Examples 8 was tested as penetration enhancers according to the procedure outlined under Example 49."}, "[5]": {"assay": "Examples 51-62 repeated with other penetration enhancers; comparison as penetration enhancing agents", "details": "in words"}, "Hygroscopicity": {"assay": "Hygroscopicity", "type": "physicochemical", "protocol": "34 g (127 mmoles) 1-(2-Hyrdoxyethyl)-2-undecyl-2-imidazoline was dissolved in 300 ml of hexane and 8.5 g […] of acetic acid in 50 ml of hexane were reacted. The precipitate was filtered and then dried at 40°-50° C. under high vacuum for 5 hours. Yield 40.7 g (97.8%)."}, "[6]": {"details": "patch, 3% PG, control without enhancer, receptor ethanol/saline (3:7)", "description": "The skin was placed between the donor and the receptor compartments of diffusion cells in such a way that the dermal side of the skin faced the receptor compartment which was filled with normal saline (pH 7.2-7.4) or appropriate releasing media. The stratum corneum was equilibrated at 37° C. overnight prior to the application of a topical formulation or a transdermal patch. All formulations were studied in triplicate.\nas §4\nProcedure of Example 39 was repeated with the following two sets of Progesterone (PG) patch formulations. Normal saline in the receptor compartment was replaced with ethanol/saline (3:7)."}},
  "note": "Like-named read-outs stand apart in the source and are kept apart here.",
  "data": [
    {"smiles": "O=C(O)Cc1ccccc1Nc1c(Cl)cccc1Cl", "note": "[Diclofenac, reference compound]", "values": [
      {"measurement": "Average Cumulative Amount of Diclofenac in Micrograms permeating over 24 hours", "setting": "[1]", "value": "106.7 ± 33.5", "unit": "Micrograms"}
    ]},
    {"smiles": "C[C@]12CC[C@@H]3c4ccc(O)cc4CC[C@H]3[C@@H]1CC[C@@H]2O", "note": "[ES, 17B-Estradiol]", "values": [
      {"measurement": "Average Cumulative Amount of ES in Micrograms Permeating over 51 Hours", "setting": "[2]", "value": "30.90 ± 1.00", "unit": "Micrograms"}
    ]},
    {"smiles": "CCCCCCCCCCCC1=NC(C)(C)CO1", "note": "[Example 8, 4,4-dimethyl-2-undecyl-2-oxazoline]", "values": [
      {"measurement": "% Penetration (hydrocortisone)", "setting": "[3]; 6 hrs", "value": 16.1, "unit": "%"},
      {"measurement": "% Penetration (hydrocortisone)", "setting": "[3]; 12 hrs", "value": 28.2, "unit": "%"},
      {"measurement": "% Penetration (hydrocortisone)", "setting": "[3]; 24 hrs", "value": 49.1, "unit": "%"},
      {"measurement": "penetration enhancing properties as compared to the control (hydrocortisone)", "setting": "[3]", "value": "far superior penetration enhancing properties"},
      {"measurement": "% Penetration (5-Fluorouracil)", "setting": "[4]; 6 hrs", "value": 59.2, "unit": "%"},
      {"measurement": "% Penetration (5-Fluorouracil)", "setting": "[4]; 12 hrs", "value": 60.3, "unit": "%"},
      {"measurement": "% Penetration (5-Fluorouracil)", "setting": "[4]; 24 hrs", "value": 60.5, "unit": "%"},
      {"measurement": "penetration enhancement compared to the control (5-Fluorouracil)", "setting": "[4]; in words", "value": "superior to the control"}
    ]},
    {"smiles": "CCCCCCCCCCCC1=NC(C)(CO)CO1", "note": "(centres unmarked) [Example 13, 4-hydroxymethyl-4-methyl-2-undecyl-2-oxazoline]", "values": [
      {"measurement": "% Penetration (hydrocortisone)", "setting": "[3]; 6 hrs", "value": 8.8, "unit": "%"},
      {"measurement": "% Penetration (hydrocortisone)", "setting": "[3]; 12 hrs", "value": 17.3, "unit": "%"},
      {"measurement": "% Penetration (hydrocortisone)", "setting": "[3]; 24 hrs", "value": 34.9, "unit": "%"},
      {"measurement": "penetration enhancing properties as compared to the control (hydrocortisone)", "setting": "[3]", "value": "far superior penetration enhancing properties"}
    ]},
    {"smiles": "CCCCCCCCCCC1COC(C(F)(F)F)=N1", "note": "(centres unmarked) [Example 21, 4-Decyl-2-trifluoromethyl-2-oxazoline]", "values": [
      {"measurement": "permeation of Diclofenac through human skin compared to control", "setting": "[1]", "value": "increases the permeation"},
      {"measurement": "penetration enhancing, compared with the prior art and the other examples", "setting": "[5]", "value": "significantly superior penetration enhancing agents"}
    ]},
    {"smiles": "CCCCCCCCCCCC1=NCCN1CCO", "note": "[Example 37, 1-(2-Hyrdoxyethyl)-2-undecyl-2-imidazoline acetate]", "values": [
      {"measurement": "behaviour upon absorbing moisture", "setting": "Hygroscopicity", "value": "hydrated to a gel upon absorbing moisture"},
      {"measurement": "hygroscopicity (hydroscopic [sic])", "setting": "Hygroscopicity", "value": "hydroscopic"}
    ]},
    {"smiles": "CC(=O)[C@H]1CC[C@H]2[C@@H]3CCC4=CC(=O)CC[C@]4(C)[C@H]3CC[C@]12C", "note": "[PG, Progesterone]", "values": [
      {"measurement": "Average Cumulative Amount of PG in Micrograms Permeating over 51 Hours", "setting": "[6]; SET A", "value": "176.3 ± 92.0", "unit": "Micrograms"},
      {"measurement": "Average Cumulative Amount of PG in Micrograms Permeating over 51 Hours", "setting": "[6]; SET B", "value": "25 ± 17", "unit": "Micrograms"}
    ]}
  ]
}
